In assay [1] the target is T1, Human CD73 (amino acid residues 27-549) (Homo sapiens, UniProt P21589).
T1 construct: Human CD73 (amino acid residues 27-549); His tag (N); made in house; host or cells: E. coli
T1 sequence (P21589 27-549): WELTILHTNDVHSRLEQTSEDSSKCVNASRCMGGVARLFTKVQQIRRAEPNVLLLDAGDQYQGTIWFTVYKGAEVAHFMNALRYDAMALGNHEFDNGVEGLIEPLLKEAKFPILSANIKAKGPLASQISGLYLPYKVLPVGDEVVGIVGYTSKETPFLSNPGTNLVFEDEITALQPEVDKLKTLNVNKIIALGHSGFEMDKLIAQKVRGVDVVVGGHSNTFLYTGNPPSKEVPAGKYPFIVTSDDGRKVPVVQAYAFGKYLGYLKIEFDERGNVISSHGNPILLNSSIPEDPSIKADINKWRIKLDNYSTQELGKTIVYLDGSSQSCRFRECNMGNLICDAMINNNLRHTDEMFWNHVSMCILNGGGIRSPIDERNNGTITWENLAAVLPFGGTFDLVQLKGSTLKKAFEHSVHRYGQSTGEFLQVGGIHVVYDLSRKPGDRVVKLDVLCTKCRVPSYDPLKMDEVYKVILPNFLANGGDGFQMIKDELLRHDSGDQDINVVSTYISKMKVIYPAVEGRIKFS
The assay can be described thus: CD73 enzymatic assay (luciferase-based indirect assay, CellTiter-Glo). The class given is biochemical. The settings on record: 0.4 nM CD73, 150 μM AMP, 1 hour at room temperature. The essentials:
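Residual AMP inhibits luciferase, so luminescence reports CD73 turnover; read with CellTiter-Glo 2.0 plus 1 μM final ATP, 30 min. Reaction used 0.4 nM N-His CD73 (27-549, E. coli), 150 μM AMP, HEPES pH 7.4 with Tween 20, 1 h at room temperature. IC50 fitted by nonlinear regression.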
Background: ATP-based viability assays read luminescence as a measure of living cells.

The target of another assay is T2, human CD73 (Homo sapiens, UniProt P21589).
T2 construct: expressed in transfected cells
T2 sequence (P21589 27-549): T1 sequence (P21589 27-549)
The assay can be described thus: Inhibitor activity against CD73 in cell based assay (CD73 expressing CHO-K1 cells). The conditions noted are these: CHO-K1 cells expressing human CD73, 150 μM AMP, 4 hours of incubation; read-out: CHO-K1 CELL VARIANT: CD73 IC50. The essentials: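 Residual supernatant AMP was quantified via CellTiter-Glo luminescence (1 μM ATP added, 30 min, room temperature) after a 4 h exposure of human CD73-expressing CHO-K1 cells to 150 μM AMP plus compound, top final 10 μM, 8 points. IC50 came from nonlinear regression of percent inhibition.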

The structures appear in SMILES notation. pIC50: −log10 of the molar value.

As a reminder, the pIC50 is −log10 of the IC50, conventionally taken in molar units.

`O=C(NC1CCC2(CC1)CC2)O[C@@H]1CCN(c2cn[nH]c(=O)c2Cl)C1` [P-0276, (R)-1-(5-chloro-6-oxo-1,6-dihydropyridazin-4-yl)pyrrolidin-3-yl spiro[2.5]octan-6-ylcarbamate]: the pIC50 (in assay [1]; at human CD73) was 5.00 to 9.00 throughout.

For the molecule `O=C(N[C@H]1CC[C@H](F)CC1)O[C@@H]1CCN(c2cn[nH]c(=O)c2Cl)C1` [P-0277, (R)-1-(5-chloro-6-oxo-1,6-dihydropyridazin-4-yl)pyrrolidin-3-yl ((1r,4R)-4-fluorocyclohexyl)carbamate], the negative-log IC50 (pIC50) (in assay [1]; at human CD73) was 5.00 to 9.00 in each case.

Take `CC1(C)CCCC(NC(=O)O[C@@H]2CCN(c3cn[nH]c(=O)c3Cl)C2)C1` (stereo partly drawn) [P-0278, (R)-1-(5-chloro-6-oxo-1,6-dihydropyridazin-4-yl)pyrrolidin-3-yl (3,3-dimethylcyclohexyl)carbamate]: the negative-log IC50 (pIC50) (in assay [1]; on human CD73) was 5.00 to 9.00 each time.

Regarding `C[C@H]1CCCC[C@H]1NC(=O)O[C@@H]1CCN(c2cn[nH]c(=O)c2Cl)C1` [P-0279, (R)-1-(5-chloro-6-oxo-1,6-dihydropyridazin-4-yl)pyrrolidin-3-yl ((1R,2S)-2-methylcyclohexyl)carbamate], the pIC50 (in assay [1]; at human CD73) was 5.00 to 9.00 throughout.

For the molecule `O=C1CC(NC(=O)O[C@@H]2CCN(c3cn[nH]c(=O)c3Cl)C2)CCN1` (stereo partly drawn) [P-0280, (R)-1-(5-chloro-6-oxo-1,6-dihydropyridazin-4-yl)pyrrolidin-3-yl (2-oxopiperidin-4-yl)carbamate], the pIC50 (in assay [1]; on human CD73) was 5.00 to 9.00 each time.

Take `CN1CCC(NC(=O)O[C@@H]2CCN(c3cn[nH]c(=O)c3Cl)C2)CC1=O` (stereo partly drawn) [P-0281, (R)-1-(5-chloro-6-oxo-1,6-dihydropyridazin-4-yl)pyrrolidin-3-yl (1-methyl-2-oxopiperidin-4-yl)carbamate]: the pIC50 (in assay [1]; on human CD73) was 5.00 to 9.00 throughout.

For `O=C(O)Cn1ncc(N2CC[C@@H](OC(=O)NC3CCC(F)(F)CC3)C2)c(Cl)c1=O` [P-0282, (R)-2-(5-chloro-4-(3-(((4,4-difluorocyclohexyl)carbamoyl)oxy)pyrrolidin-1-yl)-6-oxopyridazin-1(6H)-yl)acetic acid], the pIC50 in assay [1] is 5.00 to 9.00; at human CD73, 4.00 to 5.00.

As to `O=C(O)Cn1ncc(N2CC[C@@H](OC(=O)NC3CCC(F)(F)CC3)C2)cc1=O` [P-0283, (R)-2-(4-(3-(((4,4-difluorocyclohexyl)carbamoyl)oxy)pyrrolidin-1-yl)-6-oxopyridazin-1(6H)-yl)acetic acid], the pIC50 in assay [1] is 3.00 to 4.00; at human CD73 it was 4.00 to 5.00.

In the case of `O=C(NC1CCC(F)(F)CC1)O[C@@H]1CCN(c2cnn(CC(O)C(F)(F)F)c(=O)c2Cl)C1` (stereo partly drawn) [P-0284, (3R)-1-(5-chloro-6-oxo-1-(3,3,3-trifluoro-2-hydroxypropyl)-1,6-dihydropyridazin-4-yl)pyrrolidin-3-yl (4,4-difluorocyclohexyl)carbamate], the negative logarithm of the IC50 (pIC50) (in assay [1]; on human CD73) was 5.00 to 9.00 in each case.

Turning to `NC(=O)Cn1ncc(N2CC[C@@H](OC(=O)NC3CCC(F)(F)CC3)C2)c(Cl)c1=O` [P-0285, (R)-1-(1-(2-amino-2-oxoethyl)-5-chloro-6-oxo-1,6-dihydropyridazin-4-yl)pyrrolidin-3-yl (4,4-difluorocyclohexyl)carbamate], the pIC50 in assay [1] is 5.00 to 9.00; on human CD73, 4.00 to 5.00.

Regarding `N#CCn1ncc(N2CC[C@@H](OC(=O)NC3CCC(F)(F)CC3)C2)c(Cl)c1=O` [P-0286, (R)-1-(5-chloro-1-(cyanomethyl)-6-oxo-1,6-dihydropyridazin-4-yl)pyrrolidin-3-yl (4,4-difluorocyclohexyl)carbamate], the pIC50 is 5.00 to 9.00 in assay [1] and 4.00 to 5.00 at human CD73.

Consider `O=C(NC1CCC(F)(F)CC1)O[C@@H]1CCN(c2cnn(CCO)c(=O)c2Cl)C1` [P-0287, (R)-1-(5-chloro-1-(2-hydroxyethyl)-6-oxo-1,6-dihydropyridazin-4-yl)pyrrolidin-3-yl (4,4-difluorocyclohexyl)carbamate], for which the pIC50 (in assay [1]; at human CD73) was 5.00 to 9.00 throughout.

In the case of `C[C@@H]1CCCC[C@@H]1NC(=O)O[C@@H]1CCN(c2cn[nH]c(=O)c2Cl)C1` [P-0288, (R)-1-(5-chloro-6-oxo-1,6-dihydropyridazin-4-yl)pyrrolidin-3-yl ((1S,2R)-2-methylcyclohexyl)carbamate], the pIC50 (in assay [1]; at human CD73) was 5.00 to 9.00 in each case.

As to `Cn1ncc(N2CC[C@@H](OC(=O)N[C@H]3CC[C@H](NS(=O)(=O)c4ccc(F)cc4F)CC3)C2)c(Cl)c1=O` [P-0289, (R)-1-(5-chloro-1-methyl-6-oxo-1,6-dihydropyridazin-4-yl)pyrrolidin-3-yl ((1r,4R)-4-((2,4-difluorophenyl)sulfonamido)cyclohexyl)carbamate], the pIC50 (in assay [1]; at human CD73) was 5.00 to 9.00 each time.

Regarding `O=C(N[C@H]1CC[C@@H](NC(=O)C2CCC2)CC1)O[C@@H]1CCN(c2cn[nH]c(=O)c2Cl)C1` [P-0290, (R)-1-(5-chloro-6-oxo-1,6-dihydropyridazin-4-yl)pyrrolidin-3-yl ((1s,4S)-4-(cyclobutanecarboxamido)cyclohexyl)carbamate], the pIC50 (in assay [1]; at human CD73) was 5.00 to 9.00 throughout.

Consider `O=C(N[C@H]1CC[C@H](NS(=O)(=O)C2CCC2)CC1)O[C@@H]1CCN(c2cn[nH]c(=O)c2Cl)C1` [P-0291, (R)-1-(5-chloro-6-oxo-1,6-dihydropyridazin-4-yl)pyrrolidin-3-yl ((1r,4R)-4-(cyclobutanesulfonamido)cyclohexyl)carbamate], for which the pIC50 (in assay [1]; on human CD73) was 5.00 to 9.00 in each case.

With `O=C(N[C@H]1CC[C@H](NS(=O)(=O)c2ccc(Cl)cc2)CC1)O[C@@H]1CCN(c2cn[nH]c(=O)c2Cl)C1` [P-0292, (R)-1-(5-chloro-6-oxo-1,6-dihydropyridazin-4-yl)pyrrolidin-3-yl ((1r,4R)-4-((4-chlorophenyl)sulfonamido)cyclohexyl)carbamate], the pIC50 (in assay [1]; on human CD73) was 5.00 to 9.00 each time.

As to `Cc1ccc(S(=O)(=O)N[C@H]2CC[C@H](NC(=O)O[C@@H]3CCN(c4cn[nH]c(=O)c4Cl)C3)CC2)cc1` [P-0293, (R)-1-(5-chloro-6-oxo-1,6-dihydropyridazin-4-yl)pyrrolidin-3-yl ((1r,4R)-4-((4-methylphenyl)sulfonamido)cyclohexyl)carbamate], the pIC50 (in assay [1]; at human CD73) was 5.00 to 9.00 throughout.

As to `O=C(N[C@H]1CC[C@H](NS(=O)(=O)c2cccc(F)c2)CC1)O[C@@H]1CCN(c2cn[nH]c(=O)c2Cl)C1` [P-0294, (R)-1-(5-chloro-6-oxo-1,6-dihydropyridazin-4-yl)pyrrolidin-3-yl ((1r,4R)-4-((3-fluorophenyl)sulfonamido)cyclohexyl)carbamate], the pIC50 (in assay [1]; on human CD73) was 5.00 to 9.00 throughout.

Take `O=C(N[C@H]1CC[C@H](NS(=O)(=O)c2cccnc2)CC1)O[C@@H]1CCN(c2cn[nH]c(=O)c2Cl)C1` [P-0295, (R)-1-(5-chloro-6-oxo-1,6-dihydropyridazin-4-yl)pyrrolidin-3-yl ((1r,4R)-4-(pyridine-3-sulfonamido)cyclohexyl) carbamate]: the pIC50 (in assay [1]; on human CD73) was 5.00 to 9.00 throughout.

Source of the values: patent US12509444B2, “Compounds and methods for CD73 modulation and indications therefor” (Plexxikon Inc., priority 2019, dated 2025).
